Test results taken from patent US12590099B2, “Inhibitors of histone deacetylase useful for the treatment or prevention of HIV infection” (Merck Sharp & Dohme LLC, priority 2018, dated 2026).

Columns and labels:
Format in all cases: biochemical
Recombinant human HDAC2 = target: T1, Recombinant human HDAC2 (Homo sapiens, UniProt Q92769); test: Human HDAC enzyme inhibitor Fluor-de-Lys assay, HDAC2; conditions: recombinant human HDAC2, Fluor-de-Lys assay
T1 construct: Full length human HDAC2-FLAG was expressed in baculovirus infected Sf9 cells; FLAG (C); made in house; host or cells: Sf9 (baculovirus)
Procedure, shortened: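 Fluor-de-Lys format at room temperature (23° C.): compounds titrated 10-point, 1:3, preincubated with HDAC before substrate addition. Developer with excess HDAC inhibitor ends the reaction, and trypsin-liberated AMC fluorescence is the read-out.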

[1] = target: T2, Recombinant human HDAC3/SMRT heterodimer (Homo sapiens, UniProt O15379); test: Human HDAC enzyme inhibitor Fluor-de-Lys assay, HDAC3/SMRT; conditions: recombinant human HDAC3/SMRT, Fluor-de-Lys assay
T2 construct: FLAG (C); made in house

HDAC6 = target: T3, HDAC6 (Homo sapiens, UniProt Q9UBN7); test: Human HDAC enzyme inhibitor Fluor-de-Lys assay, HDAC6; conditions: HDAC6, Fluor-de-Lys assay
T3 sequence (Q9UBN7 1-1215): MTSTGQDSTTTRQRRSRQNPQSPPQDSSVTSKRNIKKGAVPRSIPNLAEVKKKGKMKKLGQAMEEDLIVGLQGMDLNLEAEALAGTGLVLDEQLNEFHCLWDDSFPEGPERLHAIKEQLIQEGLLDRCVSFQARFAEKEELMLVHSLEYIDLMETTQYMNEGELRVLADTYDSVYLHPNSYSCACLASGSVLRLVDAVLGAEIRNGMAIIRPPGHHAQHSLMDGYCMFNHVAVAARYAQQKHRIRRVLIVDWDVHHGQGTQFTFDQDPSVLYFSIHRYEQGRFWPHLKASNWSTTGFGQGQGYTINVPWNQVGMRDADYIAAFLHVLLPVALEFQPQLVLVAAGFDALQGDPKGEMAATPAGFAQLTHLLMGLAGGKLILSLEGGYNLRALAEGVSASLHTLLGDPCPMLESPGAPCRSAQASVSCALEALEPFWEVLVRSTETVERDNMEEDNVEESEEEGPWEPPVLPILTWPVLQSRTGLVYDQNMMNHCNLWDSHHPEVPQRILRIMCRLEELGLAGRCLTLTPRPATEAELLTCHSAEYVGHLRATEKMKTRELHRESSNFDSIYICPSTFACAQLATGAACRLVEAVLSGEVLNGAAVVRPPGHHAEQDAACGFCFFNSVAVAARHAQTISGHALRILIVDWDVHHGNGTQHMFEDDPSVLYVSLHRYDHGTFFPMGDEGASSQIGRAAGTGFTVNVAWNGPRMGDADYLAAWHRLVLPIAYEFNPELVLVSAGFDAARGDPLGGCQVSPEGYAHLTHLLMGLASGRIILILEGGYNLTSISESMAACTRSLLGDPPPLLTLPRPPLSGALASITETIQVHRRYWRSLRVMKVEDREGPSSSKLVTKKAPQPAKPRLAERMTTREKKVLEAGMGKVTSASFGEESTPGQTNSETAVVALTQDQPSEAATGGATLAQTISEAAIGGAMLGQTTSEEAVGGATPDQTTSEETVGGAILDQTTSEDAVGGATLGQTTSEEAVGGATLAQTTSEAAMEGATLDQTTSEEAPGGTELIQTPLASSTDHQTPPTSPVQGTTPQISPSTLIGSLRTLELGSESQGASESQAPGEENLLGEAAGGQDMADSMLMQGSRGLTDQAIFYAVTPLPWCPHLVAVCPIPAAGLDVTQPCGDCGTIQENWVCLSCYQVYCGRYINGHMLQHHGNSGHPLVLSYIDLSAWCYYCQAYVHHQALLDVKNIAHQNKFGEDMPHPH

Recombinant human HDAC1 = target: T4, Recombinant human HDAC1 (Homo sapiens, UniProt Q13547); test: Human HDAC enzyme inhibitor Fluor-de-Lys assay, HDAC1; conditions: recombinant human HDAC1, Fluor-de-Lys assay
T4 construct: FLAG (C); made in house
Procedure, shortened: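 Fluor-de-Lys format at room temperature (23° C.): compounds titrated 10-point, 1:3, preincubated with HDAC before substrate addition; HDAC1 run at 0.3 nM enzyme with 20 μM BML-KI104. Developer with excess HDAC inhibitor ends the reaction, and trypsin-liberated AMC fluorescence is the read-out.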

T2 sequence (O15379 whole entry): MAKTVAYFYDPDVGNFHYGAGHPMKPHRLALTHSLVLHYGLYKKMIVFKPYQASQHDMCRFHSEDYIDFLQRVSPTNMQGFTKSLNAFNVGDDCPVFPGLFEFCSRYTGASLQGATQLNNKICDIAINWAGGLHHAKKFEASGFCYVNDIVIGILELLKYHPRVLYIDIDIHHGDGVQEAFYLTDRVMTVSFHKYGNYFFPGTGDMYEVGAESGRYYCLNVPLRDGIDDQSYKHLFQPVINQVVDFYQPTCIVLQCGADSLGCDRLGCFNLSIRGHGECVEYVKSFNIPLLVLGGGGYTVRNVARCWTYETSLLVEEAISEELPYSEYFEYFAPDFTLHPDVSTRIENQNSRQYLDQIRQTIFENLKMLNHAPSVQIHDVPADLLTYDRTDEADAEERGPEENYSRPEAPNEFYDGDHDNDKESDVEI
T2 sequence (Q9Y618 1-899 partner limits assumed): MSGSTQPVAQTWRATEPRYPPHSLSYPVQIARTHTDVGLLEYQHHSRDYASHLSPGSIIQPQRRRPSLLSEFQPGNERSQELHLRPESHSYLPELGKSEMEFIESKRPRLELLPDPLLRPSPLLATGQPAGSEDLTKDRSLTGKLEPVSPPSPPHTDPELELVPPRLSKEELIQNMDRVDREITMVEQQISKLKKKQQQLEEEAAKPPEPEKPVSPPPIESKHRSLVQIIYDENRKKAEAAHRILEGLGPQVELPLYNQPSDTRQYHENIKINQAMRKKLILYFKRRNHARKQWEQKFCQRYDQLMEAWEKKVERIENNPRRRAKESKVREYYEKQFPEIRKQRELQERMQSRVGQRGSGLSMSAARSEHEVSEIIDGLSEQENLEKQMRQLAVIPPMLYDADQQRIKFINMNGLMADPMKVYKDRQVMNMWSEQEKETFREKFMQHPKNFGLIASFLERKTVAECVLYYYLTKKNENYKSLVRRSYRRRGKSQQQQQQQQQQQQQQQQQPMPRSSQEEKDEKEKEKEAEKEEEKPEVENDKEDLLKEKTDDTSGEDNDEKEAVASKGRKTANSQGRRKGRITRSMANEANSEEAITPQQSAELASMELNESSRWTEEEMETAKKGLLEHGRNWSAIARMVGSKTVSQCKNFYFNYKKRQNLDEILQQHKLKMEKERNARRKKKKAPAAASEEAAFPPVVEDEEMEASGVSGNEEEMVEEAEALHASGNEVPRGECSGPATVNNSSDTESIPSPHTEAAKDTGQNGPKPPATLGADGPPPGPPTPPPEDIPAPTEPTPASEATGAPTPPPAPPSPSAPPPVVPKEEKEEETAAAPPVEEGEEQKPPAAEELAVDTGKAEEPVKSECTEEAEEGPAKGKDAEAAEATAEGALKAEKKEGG
T1 sequence (Q92769 whole entry): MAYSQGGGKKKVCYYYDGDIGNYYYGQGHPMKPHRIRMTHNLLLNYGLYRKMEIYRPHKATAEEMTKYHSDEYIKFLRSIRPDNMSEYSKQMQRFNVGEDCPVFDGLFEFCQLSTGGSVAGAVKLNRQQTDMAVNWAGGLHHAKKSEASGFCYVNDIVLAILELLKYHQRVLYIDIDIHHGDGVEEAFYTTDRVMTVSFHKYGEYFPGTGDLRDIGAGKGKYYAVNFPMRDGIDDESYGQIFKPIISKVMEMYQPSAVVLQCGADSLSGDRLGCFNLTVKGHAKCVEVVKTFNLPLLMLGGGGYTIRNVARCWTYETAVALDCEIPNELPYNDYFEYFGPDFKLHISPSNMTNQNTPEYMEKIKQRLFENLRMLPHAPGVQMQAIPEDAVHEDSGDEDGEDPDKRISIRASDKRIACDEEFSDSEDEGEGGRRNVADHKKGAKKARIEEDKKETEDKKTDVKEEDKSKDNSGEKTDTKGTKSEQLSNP
T4 sequence (Q13547 whole entry): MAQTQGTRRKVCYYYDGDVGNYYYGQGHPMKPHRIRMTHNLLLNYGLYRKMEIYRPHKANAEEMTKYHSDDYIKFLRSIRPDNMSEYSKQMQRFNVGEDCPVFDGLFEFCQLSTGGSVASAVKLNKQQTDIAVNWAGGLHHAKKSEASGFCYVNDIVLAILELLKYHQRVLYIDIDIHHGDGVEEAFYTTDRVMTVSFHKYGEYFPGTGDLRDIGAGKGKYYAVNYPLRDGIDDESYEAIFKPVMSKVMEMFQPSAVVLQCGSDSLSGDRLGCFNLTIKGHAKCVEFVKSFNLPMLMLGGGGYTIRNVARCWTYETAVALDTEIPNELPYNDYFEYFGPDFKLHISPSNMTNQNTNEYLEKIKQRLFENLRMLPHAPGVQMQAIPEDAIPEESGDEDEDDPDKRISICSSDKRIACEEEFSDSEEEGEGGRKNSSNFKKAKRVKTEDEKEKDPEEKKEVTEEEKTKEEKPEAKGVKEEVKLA

SMILES	IC50 (Recombinant human HDAC2) [nM]	IC50 [1] [nM]	IC50 (HDAC6) [nM]	IC50 (Recombinant human HDAC1) [nM]
CCC(=O)CCCCC[C@H](NCC1CC1)c1ncc(-c2cc3ccc(C)nc3cc2OC)[nH]1 [Compound 398, (S)-9-((cyclopropylmethyl)amino)-9-(5-(7-methoxy-2-methylquinolin-6-yl)-1H-imidazol-2-yl)nonan-3-one]	810	241	> 900	186
CCC(=O)CCCCC[C@H](NCC1CN(C)C1)c1ncc(-c2cc3ccc(C)nc3cc2OC)o1 [Compound 401, (9S)-9-[5-(7-methoxy-2-methylquinolin-6-yl)-1,3-oxazol-2-yl]-9-{[(1-methylazetidin-3-yl)methyl]amino}nonan-3-one]	179	51.3	> 900	32.1
CCN[C@@H](CCCCCC(=O)CC)c1ncc(-c2cc3ccc(C)nc3cc2OC)[nH]1 [Compound 403]	> 900	283	> 900	248
CCC(=O)CCCCC[C@H](NCc1ccncc1)c1ncc(-c2cc3ccc(C)nc3cc2OC)[nH]1 [Compound 404]	> 900	501	> 900	367
CCC(=O)CCCCC[C@H](NC(=O)[C@H]1CC12CCN(C)CC2)c1ncc(-c2cc3ccncc3cc2OC)o1 [Compound 405]	2	0.7	163	0.3
CCC(=O)CCCCC[C@H](NC(=O)[C@H]1CC12CCN(C)CC2)c1ncc(-c2cc3ccc(N(C)C)nc3cc2OC)o1 [Compound 406]	2.5	1.05	> 900	0.83
CCC(=O)CCCCC[C@H](NC(=O)[C@H]1CC12CCN(C)CC2)c1ncc(-c2cc3ocnc3cc2OC)o1 [Compound 408]	36.1	7.37	647	3.82
CCC(=O)CCCCCC(N)(COC)c1ncc(-c2cc3ccc(C)nc3cc2OC)[nH]1 (stereo not shown) [Compound 414, 9-amino-10-methoxy-9-[5-(7-methoxy-2-methylquinolin-6-yl)-1H-imidazol-2-yl]decan-3-one]	> 900	> 900	> 900	> 900
CCC(=O)CCCCC[C@H](NC(=O)C1=NOC2(CCN(C)CC2)C1)c1ncc(-c2cc3ccncc3cc2OC)o1 [Compound 415]	33.1	7.82	> 900	3.31
CCCC(=O)CCCCC[C@H](NC(=O)[C@H]1CC12CCN(CC1CC1)CC2)c1ncc(-c2cc3ccc(C)nc3cc2OC)[nH]1 [Compound 416]	4.5	1.11	> 900	< 1.58
CCC(=O)CCCCCC(CC)(NC(=O)[C@H]1CC12CCN(CC1CC1)CC2)c1nc(-c2cc3ccc(C)nc3cc2OC)c[nH]1 (stereo partly drawn) [Compound 420, (1S)-6-(cyclopropylmethyl)-N-{3-[4-(7-methoxy-2-methylquinolin-6-yl)-1H-imidazol-2-yl]-9-oxoundecan-3-yl}-6-azaspiro[2.5]octane-1-carboxamide]	330	328	> 900	484
CCC(=O)CCCCC[C@H](NC(=O)[C@H]1CC12CCN(CC1CC1)CC2)c1ncc(-c2cc3ccc(C)nc3cc2OC)o1 [Compound 422]	0.7	0.08	113	0.17
CCCC(=O)CCCCC[C@H](N)c1ncc(-c2cc3ccc(C)nc3cc2OC)[nH]1 [Compound A30]	304	95.6	> 900	60.6
